As to `CCCC(=O)c1ccccc1` [1-phenyl-1-butanone], the flash point worked out at 88 °C.

Consider `CCCS` [1-propanethiol], for which the flash point was -21 °C.

Molecule `CC(C)(C)CO` [2,2-dimethyl-1-propanol] gave a flash point of 36 °C.

In turn, `CC(=O)C(C)=O` [2,3-butanedione] registered a flash point of 6 °C.

On to `OCC(Cl)CCl` (stereo unspecified) [2,3-dichloro-1-propanol], for which the flash point was 93 °C.

The molecule `C1=COCC1` [2,3-dihydrofuran] gave a flash point of -24 °C.

Molecule `C=C(C)C(=C)C` [2,3-dimethyl-1,3-butadiene] gave a flash point of -22 °C.

In turn, `C=C(C)C(C)C` [2,3-dimethyl-1-butene] returned a flash point of -18 °C.

On to `CCC(C)C(C)C` (stereo unspecified) [2,3-dimethylpentane], for which the flash point is -6 °C.

`Cc1ccc(O)c(C)c1` [2,4-dimethylphenol]: the flash point was found to be 94 °C.

For `Cc1ccnc(C)c1` [2,4-dimethylpyridine], the flash point amounted to 37 °C.

Consider `Cc1ccc(C)c(O)c1` [2,5-dimethylphenol], for which the flash point was 95 °C.

In the case of `CC(=O)CCC(C)=O` [2,5-hexanedione], the flash point worked out at 79 °C.

The molecule `Cc1cccc(C)c1O` [2,6-dimethylphenol] showed a flash point of 73 °C.

As to `CC(C)Br` [2-bromopropane], the flash point came to 1 °C.

As for `CCC(C)=O` [2-butanone], the flash point is -9 °C.

In turn, `CCCCOCCOC(C)=O` [2-butoxyethyl acetate] showed a flash point of 71 °C.

In the case of `CC1=CC2C(CC1)C2(C)C` (stereo unspecified) [2-carene], the flash point stood at 38 °C.

In the case of `CC(Cl)CO` (stereo unspecified) [2-chloro-1-propanol], the flash point amounted to 52 °C.

In the case of `Cc1ccccc1Cl` [2-chlorotoluene], the flash point was 43 °C.

On to `CCCCC(CC)CN` (stereo unspecified) [2-ethyl-1-hexanamine], for which the flash point was 50 °C.

The molecule `CCCCC(CC)CO` (stereo unspecified) [2-ethyl-1-hexanol] displayed a flash point of 77 °C.

Regarding `CCC(CC)C(=O)O` [2-ethylbutyric acid], the flash point was 87 °C.

The molecule `CC=CCCC` [2-hexene] had a flash point of -21 °C.

On to `OCCS` [2-mercaptoethanol], for which the flash point was 73 °C.

Consider `C=CC(=C)C` [2-methyl-1,3-butadiene], for which the flash point is -48 °C.

As to `CCC(C)CS` (stereo unspecified) [2-methyl-1-butanethiol], the flash point worked out at 19 °C.

In the case of `C=C(C)CCCCC` [2-methyl-1-heptene], the flash point was 10 °C.

Take `C=C(C)CCC` [2-methyl-1-pentene]: the flash point is -26 °C.

In turn, `CC(C)CO` [2-methyl-1-propanol] registered a flash point of 27 °C.

Molecule `CCCCC=C(C)C` [2-methyl-2-heptene] yielded a flash point of 8 °C.

`CCC=C(C)C` [2-methyl-2-pentene] yielded a flash point of -23 °C.

As to `C=C(C)CO` [2-methyl-2-propen-1-ol], the flash point worked out at 33 °C.

`C=C(C)C=O` [2-methyl-2-propenal] registered a flash point of -15 °C.

The molecule `CCC(O)C(C)C` (stereo unspecified) [2-methyl-3-pentanol] came in with a flash point of 46 °C.

In the case of `CC=CCCCCC` [2-octene], the flash point stood at 14 °C.

The molecule `CCCC(C)S` (stereo unspecified) [2-pentanethiol] came in with a flash point of 9 °C.

For `OCCc1ccccc1` [2-phenylethanol], the flash point was 102 °C.

Molecule `Cc1ccccn1` [2-picoline] showed a flash point of 28 °C.

In turn, `C=CC(=O)OCCCC` [2-propenoic acid, butyl ester] gave a flash point of 37 °C.

In turn, `Cc1ccc(O)c(C(C)(C)C)c1` [2-t-butyl-4-methylphenol] came in with a flash point of 100 °C.

In the case of `Cc1cccc(C(C)(C)C)c1O` [2-t-butyl-6-methylphenol], the flash point worked out at 107 °C.

In turn, `C=CCCO` [3-buten-1-ol] yielded a flash point of 33 °C.

`C=CC(C)O` (stereo unspecified) [3-buten-2-ol]: the flash point is 20 °C.

`SCCCCl` [3-chloro-1-propanethiol] gave a flash point of 43 °C.

Consider `OCCCCl` [3-chloro-1-propanol], for which the flash point was 73 °C.

Take `C=C(C)CCl` [3-chloro-2-methyl-1-propene]: the flash point was -12 °C.

In turn, `Cc1cccc(Cl)c1` [3-chlorotoluene] displayed a flash point of 50 °C.

Molecule `CCCC(CC)CC` [3-ethylhexane] yielded a flash point of 6 °C.

Take `CCCC(=O)CC` [3-hexanone]: the flash point was 35 °C.

In turn, `N#CCCO` [3-hydroxypropanenitrile] registered a flash point of 129 °C.

`C=CC(C)=CC` [3-methyl-1,3-pentadiene]: the flash point was -28 °C.

Take `CCC(C)C(C)O` (stereo unspecified) [3-methyl-2-pentanol]: the flash point amounted to 40 °C.

`C=Cc1cccc(C)c1` [3-methylstyrene] came in with a flash point of 51 °C.

`CCCCCC(O)CC` (stereo unspecified) [3-octanol]: the flash point came to 65 °C.

On to `CCCCCC(=O)CC` [3-octanone], for which the flash point was 53 °C.

With `CCOC(=O)CC(C)=O` [3-oxobutanoic acid ethyl ester], the flash point was found to be 70 °C.

In turn, `CCC(O)CC` [3-pentanol] returned a flash point of 34 °C.

`C=CCCBr` [4-bromo-1-butene] came in with a flash point of 9 °C.

`Brc1ccc(-c2ccccc2)cc1` [4-bromobiphenyl] came in with a flash point of 144 °C.

`CCc1ccc(O)cc1` [4-ethylphenol] returned a flash point of 104 °C.

Molecule `CC(=O)CC(C)C` [4-methyl-2-pentanone] came in with a flash point of 14 °C.

`Cc1ccc(N)cc1` [4-methylaniline]: the flash point was found to be 86 °C.

For the molecule `CC1CCC(O)CC1` (stereo unspecified) [4-methylcyclohexanol], the flash point was found to be 70 °C.

On to `CCCCCC(C)CCC` (stereo unspecified) [4-methylnonane], for which the flash point was found to be 38 °C.

Consider `Cc1ccncc1` [4-methylpyridine], for which the flash point stood at 37 °C.

The molecule `C=Cc1ccc(C)cc1` [4-methylstyrene] gave a flash point of 45 °C.

The molecule `Cc1ccncc1` [4-picoline] registered a flash point of 40 °C.

`CCCCC=CCCCC` [5-decene]: the flash point was determined as 46 °C.

As for `CCCCCC(=O)CCCCC` [6-undecanone], the flash point worked out at 88 °C.

As to `CN(C)CCCN` [N,N-dimethyl-1,3-propanediamine], the flash point came to 35 °C.

`CN(C)CC1CCCCC1` [N,N-dimethylcyclohexanemethylamine] returned a flash point of 48 °C.

Take `CCCCNC(C)=O` [N-butylacetamide]: the flash point turned out to be 116 °C.

For `CCNC(C)=O` [N-ethylacetamide], the flash point is 110 °C.

For `CNC(C)C` [N-methyl-2-propanamine], the flash point was -31 °C.

With `CNc1ccccc1` [N-methylaniline], the flash point came to 80 °C.

`CCCCNC` [N-methylbutylamine] displayed a flash point of 1 °C.

In turn, `CC(=O)SC(C)(C)C` [S-t-butyl thioacetate] came in with a flash point of 33 °C.

In the case of `CC(=O)OC(C)(C)C` [acetic acid, 1,1-dimethylethyl ester], the flash point worked out at 16 °C.

`CC=Cc1ccc(OC)cc1` [anethole] displayed a flash point of 90 °C.

The molecule `Sc1ccccc1` [benzenethiol] came in with a flash point of 50 °C.

On to `N#Cc1ccccc1` [benzonitrile], for which the flash point turned out to be 75 °C.

`CSCc1ccccc1` [benzyl methyl sulfide]: the flash point turned out to be 73 °C.

The molecule `c1ccc(CCc2ccccc2)cc1` [bibenzyl] showed a flash point of 129 °C.

The molecule `BrC(Br)Br` [bromoform] gave a flash point of 83 °C.

`C=CC(=O)OCCCC` [butyl acrylate] showed a flash point of 39 °C.

In turn, `CCCCOC(=O)CC` [butyl propionate] registered a flash point of 32 °C.

In the case of `Cc1ccc(C(C)C)cc1O` [carvacrol], the flash point was determined as 106 °C.

In turn, `CC(C)=CCCC(C)CC=O` (stereo unspecified) [citronellal] had a flash point of 75 °C.

Regarding `O=C1CCC1` [cyclobutanone], the flash point is 10 °C.

As for `N#CC1CCCCC1` [cyclohexanecarbonitrile], the flash point was determined as 65 °C.

Take `SC1CCCCC1` [cyclohexanethiol]: the flash point was determined as 43 °C.

In turn, `C1CCC2OC2C1` (stereo unspecified) [cyclohexene oxide] had a flash point of 24 °C.

The molecule `SC1CCCC1` [cyclopentanethiol] returned a flash point of 25 °C.

Molecule `N#CC1CC1` [cyclopropanecarbonitrile] gave a flash point of 32 °C.

On to `NC1CC1` [cyclopropylamine], for which the flash point was -25 °C.

In the case of `CC(C)(C)SSC(C)(C)C` [di-tert-butyl disulfide], the flash point worked out at 67 °C.

As to `CC(C)(C)OOC(C)(C)C` [di-tert-butyl peroxide], the flash point is 12 °C.

The molecule `CCCCSSCCCC` [dibutyl disulfide] returned a flash point of 113 °C.

The molecule `CCCCOC(=O)c1ccccc1C(=O)OCCCC` [dibutyl phthalate] registered a flash point of 117 °C.

`CCCCOC(=O)CCCCCCCCC(=O)OCCCC` [dibutyl sebacate] registered a flash point of 167 °C.

`CCCCSCCCC` [dibutyl sulfide] yielded a flash point of 60 °C.

`CCOC(=O)CCCC(=O)OCC` [diethyl glutarate]: the flash point was 96 °C.

Turning to `CCOC(=O)c1ccccc1C(=O)OCC` [diethyl phthalate], the flash point was found to be 160 °C.

For the molecule `CCOS(=O)OCC` [diethyl sulfite], the flash point is 53 °C.

For `CCN(C#N)CC` [diethylcyanamide], the flash point was determined as 69 °C.

The molecule `COCCOCCOC` [diethylene glycol dimethyl ether] yielded a flash point of 51 °C.

`CC(C)NC(C)C` [diisopropylamine] came in with a flash point of -6 °C.

Turning to `CNC` [dimethylamine], the flash point is -18 °C.

Molecule `CCCNCCC` [dipropylamine] registered a flash point of 7 °C.

Consider `C=CC1CCCCC1` [ethenylcyclohexane], for which the flash point worked out at 22 °C.

(Values after a flash point compilation (Sun et al. 2020).)
